According to patent publication US20070265289A1, “2-Aminopyrimidine Derivative” (priority 2004, published 2007):
Where a name gives a salt, the structure may show the parent alone.

Experiments:
TNF-α production = test: Mouse LPS-induced TNF-α production model; type: in vivo, Balb/c female mice; conditions: oral administration of 30 mg/kg, 60 minutes before LPS, blood 90 minutes after LPS; for inhibition in vivo at 30 mg/kg: Mus musculus, po, 1.5 h, read-out: inhibition of plasma TNF-α
Description: (2) Mouse LPS-Induced TNF-α Production Model:
6 weeks old Balb/c female mice were placed into two groups, a control group and a test compound administration group. A solution containing 10 μg/mouse of LPS in 0.9% physiological salt was administered by intraperitoneal injection into the control mice. 60 minutes before the LPS administration, a compound of the invention was orally administered to the mice of the test compound administration group. Under anesthesia with diethyl ether, blood was collected from the posterior venous cavity of the mice of both the test compound administration group and the control group at 90 minutes after the LPS administration, and treated with heparin, and the plasma was separated from it through centrifugation at 10000 rpm at 4° C. for 10 minutes, and then diluted two-fold with PBS (pH 7.4).
The TNF-α concentration in the sample was determined with an ELISA kit (by Pharmingen, San Diego, Calif.). The inhibition by the mice of the test compound administration group relative to the mean inhibition by those of the control group was calculated as a mean value thereof.
The inhibition in oral administration of 30 mg/kg of compound (I) is shown below.

rat IKK2 = biological target: T1, rat IKK2 (Rattus norvegicus, UniProt Q9QY78); test: Evaluation of rat IKK2 enzyme inhibition; type: biochemical; conditions: 0.5 μM ATP, probit analysis; read-out: IC50, rat IKK2 enzyme activity-inhibitory effect
T1 construct: ORF of rat IKK2 (GenBank AF115282) was cloned from a rat pancreas cDNA library; FLAG; made in house; host or cells: Sf9 insect cells
T1 sequence (Q9QY78 1-757): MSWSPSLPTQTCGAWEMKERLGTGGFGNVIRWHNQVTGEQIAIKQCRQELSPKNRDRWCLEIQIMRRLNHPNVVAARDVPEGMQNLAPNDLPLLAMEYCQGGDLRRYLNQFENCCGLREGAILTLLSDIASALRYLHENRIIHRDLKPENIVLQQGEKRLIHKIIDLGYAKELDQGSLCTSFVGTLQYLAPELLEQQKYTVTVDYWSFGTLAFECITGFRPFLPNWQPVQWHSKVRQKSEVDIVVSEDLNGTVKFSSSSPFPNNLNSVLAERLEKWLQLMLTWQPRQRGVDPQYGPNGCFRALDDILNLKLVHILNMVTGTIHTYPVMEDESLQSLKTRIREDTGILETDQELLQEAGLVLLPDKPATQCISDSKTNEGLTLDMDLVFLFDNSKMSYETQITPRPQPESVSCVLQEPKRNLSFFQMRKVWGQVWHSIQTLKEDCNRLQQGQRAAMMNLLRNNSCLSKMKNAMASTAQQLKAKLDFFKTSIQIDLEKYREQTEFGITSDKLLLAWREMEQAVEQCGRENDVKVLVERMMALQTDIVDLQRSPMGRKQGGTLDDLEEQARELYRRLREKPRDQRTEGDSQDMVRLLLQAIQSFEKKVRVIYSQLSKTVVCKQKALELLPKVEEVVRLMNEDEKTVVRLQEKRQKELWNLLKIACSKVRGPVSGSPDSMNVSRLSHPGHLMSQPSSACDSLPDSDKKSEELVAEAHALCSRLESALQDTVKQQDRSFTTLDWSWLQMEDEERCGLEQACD
Description: (1) Evaluation of Rat IKK2 Enzyme Inhibition:
ORF of rat IKK2 (GenBank AF115282) was cloned from a rat pancreas cDNA library, and with a FLAG-tag attached thereto, it was expressed in an Sf9 cell line. The cells were dissolved in a cytolytic solution (50 mM Tris-HCl pH 7.5, 0.15M NaCl, 1% NP-40, 10% glycerol, 1 mM EDTA, 1 mM EGTA pH 7.5, 1 mM Na3VO4, 5 mM p-nitrophenylphosphate, 10 mM O-glycerophosphate, 1 mM DTT, 1 mM PMSF, 10 μg/ml leupeptin, 10 μg/ml aprotinin (by Sigma)) to prepare a large amount of an cell extract, which was then purified on an anti-FLAG M2 antibody (by Sigma). This experimental operation was carried out in accordance with gene manipulation experiment manuals such as known methods (Sambrook, J. et al, Molecular Cloning-A Laboratory Manual, Cold Spring Harbor laboratory, NY, 1989) or the instructions attached to the reagents. The purified rat IKK2 was stored in an enzyme preservative (20 mM Tris-HCl pH 7.5, 10% glycerol, 12.5 mM β-glycerophosphate, 0.5 mM EDTA, 0.5 mM EGTA, 0.05% Brij35, 1 mM DTT, 1 mM PMSF (by Sigma)) at −80° C.
The purified rat IKK2, 1× enzymatic reaction buffer (20 mM Tris-HCl pH 7.5, 12.5 mM O-glycerophosphate, 20 mM MgCl2, 0.1 mM DTT), 0.01% BSA (by Sigma), 0.5 μM ATP, 0.2 μM biotinated substrate peptide (18th to 49th amino acid residues of rat I-kappa B alpha (GenBank Q63746)) and a test compound dissolved in DMSO were added to a 384-well plate (catalogue No. 3677, by Corning) to be 10 μl in total therein, and left at room temperature for 90 minutes. Next, […] of a reaction stopper (100 mM Hepse pH 8, 0.01% BSA, 0.8 M KF, 50 mM EDTA pH 8, 1% Triton X-100, europium cryptate-labeled anti-phosphorylation I-kappa B alpha-antibody (by Santa Cru), streptoavidin-labeled XL665 (by Nihon Schering)) was added thereto, kept warmed for 30 minutes, and then assayed with DISCOVERY (by Perkin-Elmer). The rat IKK2 enzyme activity-inhibitory effect of the tested compound was obtained according to the following formula. Every dose was tested independently three times. Inhibition (%) by Test Compound=((mean value with rat IKK2 but not with test compound)−(mean value with both test compound and rat IKK2))/((mean value with rat IKK2 but not with test compound)−(mean value not with rat IKK2))×100.

carrageenan paw edema = test: Rat carrageenan paw edema model; type: in vivo, Sprague-Dawley male rats; conditions: for edema inhibitory activity: 30 mg/kg oral administration, 3 hours after carrageenan
Description: (3) Rat Carrageenan Paw Edema Model:
After their body weight was measured, Sprague-Dawley male rats (6-10 weeks age, male, by Nippon SLC) were divided into groups of 5 rats each in such a manner that the mean body weight of each group could be on the same level. Next, a test compound was orally administered to the rats (but 10 mL/kg of solvent alone was administered to those of the control group). 30 minutes after the test compound administration thereto, 100 μL of a 1% carrageenan (by Sigma Aldrich Japan) solution was subcutaneously injected to the sub-plantar of the right foot of each rat to induce inflammation. 3 hours after the inflammation induction, the rats were killed by deep anesthetization with ether, and their tissue below the right and left ankles was cut and collected and its weight was measured.
The test result was obtained as follows: In every rat, the weight of the left foot with no carrageenan injection thereto was subtracted from the weight of the right foot with carrageenan injection thereto, 3 hours after the carrageenan injection, thereby calculating the weight difference (g) therebetween. The edema inhibition in the test compound-administered rats was calculated relative to the mean value of the rats of the control group. For multi-group comparison between the control group and the test compound administration group, employed was a Dunnett multiple comparison test, in which the P value less than 0.05 was considered as statistical significance. All the above statistical analyses were carried out, using SAS.

Row | IC50 (rat IKK2) [nM] | SMILES | further results
1 | ≤ 500 | Nc1nc(-c2ccccc2O)cc(C2CCCNC2)n1 (centres unmarked) [Example 1, 2-(2-amino-6-piperidin-3-ylpyrimidin-4-yl)phenol dihydrochloride] | –
2 | ≤ 500 | CCOc1cccc(O)c1-c1cc(C2CCCNC2)nc(N)n1 (centres unmarked) [Example 5, 2-(2-amino-6-piperidin-3-ylpyrimidin-4-yl)-3-ethoxyphenol dihydrochloride] | –
3 | ≤ 500 | Nc1nc(-c2c(O)cccc2O)cc(C2CCCNC2)n1 (centres unmarked) [Example 10, 2-(2-amino-6-piperidin-3-ylpyrimidin-4-yl)benzene-1,3-diol dihydrochloride] | –
4 | ≤ 500 | Nc1nc(-c2cc(Cl)ccc2O)cc(C2CCCNC2)n1 (centres unmarked) [Example 14] | –
5 | ≤ 500 | Cc1ccc(-c2cc(C3CCCNC3)nc(N)n2)c(O)c1 (centres unmarked) [Example 21] | edema inhibitory activity (carrageenan paw edema): 30%
6 | ≤ 500 | COc1ccc(O)c(-c2cc(C3CCCNC3)nc(N)n2)c1 (centres unmarked) [Example 26] | –
7 | ≤ 500 | CSc1ccc(O)c(-c2cc(C3CCCNC3)nc(N)n2)c1 (centres unmarked) [Example 28] | –
8 | ≤ 500 | COCCOc1cccc(O)c1-c1cc(C2CCCNC2)nc(N)n1 (centres unmarked) [Example 46] | –
9 | ≤ 500 | Nc1nc(-c2c(O)cccc2OCCC2CCNCC2)cc(C2CCCNC2)n1 (centres unmarked) [Example 48] | –
10 | ≤ 500 | CC1CC1COc1cccc(O)c1-c1cc(C2CCCNC2)nc(N)n1 (centres unmarked) [Example 65, 2-(2-amino-6-piperidin-3-ylpyrimidin-4-yl)-3-[(2-methylcyclopropyl)methoxy]phenol dihydrochloride] | inhibition in vivo at 30 mg/kg (TNF-α production): 75%
11 | ≤ 500 | CC1(COc2cccc(O)c2-c2cc(C3CCCNC3)nc(N)n2)CC1 (centres unmarked) [Example 99] | –
12 | ≤ 500 | CC(C)COCCOc1cccc(O)c1-c1cc(C2CCCNC2)nc(N)n1 (centres unmarked) [Example 101] | –
13 | ≤ 500 | CC(COc1cccc(O)c1-c1cc(C2CCCNC2)nc(N)n1)Oc1ccccc1 (centres unmarked) [Example 103] | inhibition in vivo at 30 mg/kg (TNF-α production): 70%
14 | ≤ 500 | Nc1nc(-c2c(O)cccc2OCCCC(F)(F)F)cc(C2CCCNC2)n1 (centres unmarked) [Example 106] | inhibition in vivo at 30 mg/kg (TNF-α production): 82%
15 | ≤ 500 | Nc1nc(-c2c(O)cccc2OCc2ccc(Br)cc2)cc(C2CCCNC2)n1 (centres unmarked) [Example 108] | –
16 | ≤ 500 | Cc1ccc(O)c(-c2cc(C3CNCC(C)C3)nc(N)n2)c1 (centres unmarked) [Example 136] | –
17 | ≤ 500 | Cc1ccc(O)c(-c2cc(C3CCC(C)NC3)nc(N)n2)c1 (centres unmarked) [Example 137] | –
18 | ≤ 500 | CC(C)COc1cccc(O)c1-c1cc(C2CCNCC2)nc(N)n1 [Example 146] | –
19 | ≤ 500 | Nc1nc(-c2c(O)cccc2OCC(=O)c2ccccc2)cc(C2CCNCC2)n1 [Example 147] | –

More lines, now with the values behind:

Row | SMILES | IC50 (rat IKK2) [nM] | further results
20 | CCc1ccc(O)c(-c2cc(C3CCCNC3)nc(N)n2)c1 (single isomer, unassigned; (+)) [Example 79, (+)-2-(2-amino-6-piperidin-3-ylpyrimidin-4-yl)-4-ethylphenol dihydrochloride] | – | inhibition in vivo at 30 mg/kg (TNF-α production): 64%
21 | CCc1ccc(O)c(-c2cc(C3CCCNC3)nc(N)n2)c1 (single isomer, unassigned; (-)) [Example 78, (−)-2-(2-amino-6-piperidin-3-ylpyrimidin-4-yl)-4-ethylphenol dihydrochloride] | ≤ 500 | –
22 | Nc1nc(-c2cc(F)ccc2O)cc(C2CCCNC2)n1 (centres unmarked) [Example 12] | ≤ 500 | –
23 | Nc1nc(-c2ccc(F)cc2O)cc(C2CCCNC2)n1 (centres unmarked) [Example 13] | ≤ 500 | –
24 | Cc1cc(O)c(-c2cc(C3CCCNC3)nc(N)n2)cc1Cl (centres unmarked) [Example 19] | ≤ 500 | –
25 | Cc1ccc(O)c(-c2cc(C3CCCNC3)nc(N)n2)c1 (centres unmarked) [Example 22] | ≤ 500 | inhibition in vivo at 30 mg/kg (TNF-α production): 73%
26 | CCc1ccc(O)c(-c2cc(C3CCCNC3)nc(N)n2)c1 (centres unmarked) [Example 23] | ≤ 500 | edema inhibitory activity (carrageenan paw edema): 50%
27 | Cc1cc(O)c(-c2cc(C3CCCNC3)nc(N)n2)c(OCC2CC2)c1 (centres unmarked) [Example 40] | ≤ 500 | –
28 | COc1cccc(O)c1-c1cc(C2CCCNC2)nc(N)n1 (centres unmarked) [Example 44] | ≤ 500 | –
29 | Nc1nc(-c2c(O)cccc2OCc2ccccc2)cc(C2CCCNC2)n1 (centres unmarked) [Example 47] | ≤ 500 | –
30 | Nc1nc(-c2c(O)cccc2OCC(F)(F)C(F)F)cc(C2CCCNC2)n1 (centres unmarked) [Example 89] | ≤ 500 | inhibition in vivo at 30 mg/kg (TNF-α production): 87%
31 | CC(C)OCCOc1cccc(O)c1-c1cc(C2CCCNC2)nc(N)n1 (centres unmarked) [Example 100] | ≤ 500 | –
32 | Nc1nc(-c2c(O)cccc2OCCC2CC2)cc(C2CCCNC2)n1 (centres unmarked) [Example 104] | ≤ 500 | inhibition in vivo at 30 mg/kg (TNF-α production): 86%
33 | CC1CCC(Oc2cccc(O)c2-c2cc(C3CCCNC3)nc(N)n2)C1 (centres unmarked) [Example 126] | ≤ 500 | –
34 | CC1CCC(c2cc(-c3c(O)cccc3OCC3CC3)nc(N)n2)CN1 (centres unmarked) [Example 140] | 2.9 | inhibition in vivo at 30 mg/kg (TNF-α production): 86%
35 | Nc1nc(-c2c(O)cccc2OCC2CC2)cc(C2CCCNC2)n1 (centres unmarked) [Example 141] | – | inhibition in vivo at 30 mg/kg (TNF-α production): 86%
36 | Nc1nc(-c2c(O)cccc2OCC2CC2)cc(C2CCCNC2)n1 (centres unmarked) [Example 142] | – | inhibition of plasma TNF-α (TNF-α production; 30 mg/kg): 90%
37 | Nc1nc(-c2c(O)cccc2OCC2CC2)cc(C2CCNCC2)n1 [Example 145] | ≤ 500 | –
38 | CN(Cc1cnc2nc(N)nc(N)c2n1)c1ccc(C(=O)N[C@@H](CCC(=O)O)C(=O)O)cc1 [Methotrexate, reference compound] | – | effect on carrageenan paw edema (carrageenan paw edema; dose not given): did not exhibit an effect
